The test system of one test is rabbit aorta rings. Briefly: Vasorelaxant effect in vitro (rabbit aorta rings, phenylephrine-induced contraction). The conditions noted are these: Oryctolagus cuniculus; concentration reducing the height of the phenylephrine-induced contraction of rabbit aorta rings by 50%; 0.1% DMSO. The protocol:
Rabbits are stunned by a blow to the neck and exsanguinated. The aorta is removed, freed from adhering tissue and divided into rings of a width of 1.5 mm. The rings are placed individually under an initial tension in 5 ml organ baths with Krebs-Henseleit solution which is at 37° C., is gassed with carbogen and has the following composition (in each case mM): NaCl: 119; KCl: 4.8; CaCl2×2H2O: 1; MgSO4×7H2O: 1.4; KH2PO4: 1.2; NaHCO3: 25; glucose: 10. The force of contraction is detected with Statham UC2 cells, amplified and digitized via A/D converters (DAS-1802 HC, Keithley Instruments, Munich) and recorded in parallel on chart recorders. Contractions are induced by cumulatively adding increasing concentrations of phenylephrine to the bath. After several control cycles, the substance to be investigated is added in each further run in increasing dosage, and the height of the contraction achieved is compared with the height of the contraction reached in the last preceding one. The concentration necessary to reduce the height of the control value by 50% is calculated from this (IC50 value). The standard application volume is 5 μl, the proportion of DMSO in the bath solution corresponds to 0.1%.
On to `O=c1[nH]c(-c2nn(Cc3ccccc3F)c3ncccc23)no1` [Example 1, 3-[1-(2-Fluorobenzyl)-1H-pyrazolo[3,4-b]pyridin-3-yl]-1,2,4-oxadiazol-5(4H)-one], for which the IC50 turned out to be 2100 nM.
The molecule `O=c1[nH]c(-c2nn(Cc3ccccc3F)c3ncccc23)ns1` [Example 2, 3-[1-(2-Fluorobenzyl)-1H-pyrazolo[3,4-b]pyridin-3-yl]-1,2,4-thiadiazol-5(4H)-one] gave a half-inhibitory concentration (IC50) of 450 nM.
The same measure, in the same setting: the result for `O=c1[nH]nc(-c2nn(Cc3ccccc3F)c3ncccc23)o1` [Example 3, 5-[1-(2-Fluorobenzyl)-1H-pyrazolo[3,4-b]pyridin-3-yl]-1,3,4-oxadiazol-2(3H)-one] reads 610 nM; that for `Fc1ccccc1Cn1nc(-c2noc(=S)[nH]2)c2cccnc21` [Example 7, 3-[1-(2-Fluorobenzyl)-1H-pyrazolo[3,4-b]pyridin-3-yl]-1,2,4-oxadiazole-5(4H)-thione], 1100 nM.
Same read-out and setting: as for `O=c1[nH]c(-c2nn(Cc3ccccc3F)c3ncccc23)nn1CC(F)(F)F` [Example 18, 5-[1-(2-Fluorobenzyl)-1H-pyrazolo[3,4-b]pyridin-3-yl]-2-(2,2,2-trifluoroethyl)-2,4-dihydro-3H-1,2,4-triazol-3-one], the figure is 610 nM; as for `CC(=O)OCCn1nc(-c2nn(Cc3ccccc3F)c3ncccc23)[nH]c1=O` [Example 19, 2-{3-[1-(2-Fluorobenzyl)-1H-pyrazolo[3,4-b]pyridin-3-yl]-5-oxo-4,5-dihydro-1H-1,2,4-triazol-1-yl}ethyl acetate], 2100 nM.

The test system of a further test is vessel.
Experiment: not given
The following applies: literature report; cited from earlier work.
Turning to `Fc1ccccc1Cn1nc(-c2nnn[nH]2)c2cccnc21` [1-(2-fluorobenzyl)-3-(1H-tetrazol-5-yl)-1H-pyrazolo[3,4-b]pyridine], the vessel-relaxing effect entry was “moderate”.

As a reminder, the IC50 is the concentration at which inhibition is half-maximal. A higher IC50 goes with weaker potency in that assay.

(Values after patent US20100004235A1, “Heterocyclic Substituted, Anellated Pyrazole Derivative and its uses” (BAYER HEALTHCARE AG, priority 2006, published 2010).)
